In assay [1] the test system is THP-1 cells overexpressing FOLR2. The assay is described as follows: LYTAC mediated uptake of TNFα-Alexa647 in THP-1 WT / FOLR2 overexpressing cells (ΔMFI). As to conditions: for uptake of TNFα compared the no compound control (DMSO): 300 nM-0.137 nM. In kind it is cell-based. Details: New-uptake 100 nM-% Example 46 / New-uptake 10 nm-% Example 46: unit not given here. The procedure: Hetero-bifunctional small molecule LYTACs consisting of a TNFα binding moiety, linker and folate receptor binding moiety were tested to determine if folate receptor can internalize TNFα. THP-1 cells overexpressing FOLR2 were generated by stable transduction with lentivirus encoding FOLR2-IRES-GFP. THP-1 WT and FOLR2 overexpressing cells were maintained in RPMI (Gibco #61870143) with 10% v/v FBS (VWR #89510-188) with 2 mM L-alanyl-L-glutamine dipeptide, 100 units/ml penicillin and 100 μg/ml streptomycin (Gibco #27016021). Stable FOLR2 over-expression cells were mixed at a 50:50 ratio with WT THP-1 cells and seeded in a 96 well plate at 50,000 cells in 100 μl folate-free RPMI (Gibco […]) with 10% v/v FBS, 2 mM L-alanyl-L-glutamine dipeptide, 100 units/ml penicillin and 100 μg/ml streptomycin. In a separate 96 well plate, TNFα/folate hetero-bifunctional small molecules were mixed with unmodified TNFα conjugated with Alexa647 by non-specific lysine chemistry. Small molecule LYTACs at a concentration of 600 nM (2× final concentration) in 100 μl folate-free RPMI+10% FBS were incubated at room temperature for 30 mins. The immune complex was serially diluted 3-fold to produce a dose response range from 300 nM-0.137 nM (final concentration). The TNFα/LYTAC complex mixture was transferred to the plate containing a 50:50 mixture of THP1 WT and FOLR2 over expressing cells and incubated for 2 h at 37° C. with 5% C02. Uptake in WT and FOLR2 overexpressing cells was evaluated by flow cytometry by comparing the median fluorescence intensity of […] in the GFP negative (WT) and GFP positive (FOLR2) populations and was quantified as the difference between the mean fluorescence intensities in the APC channel for the GFP positive and GFP negative populations (ΔMFI).

For a further assay, the target named is TNFα (Homo sapiens (Human), UniProt P01375). The assay is described as follows: TNFα binding assay (time-resolved FRET, biotinylated TNFα). As to conditions: 1 nM biotinylated TNFα, 80 nM probe, 16 hr incubation; read-out: TNF-HTRF-biotin. In short, it runs like this: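 Time-resolved FRET displacement of 80 nM acceptor probe from 1 nM biotinylated TNFα with 0.5 nM streptavidin-Tb in 20 mM Hepes pH 7.5, 10 mM MgCl2, 0.015% Tween-20, 0.05 mg/ml BSA, 2% DMSO. Read (ex 340, em 490/520 nm) after 16 hr. Duplicate dose responses normalized to DMSO and 100 nM reference inhibitor; IC50 by 4-parameter fit.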
Chain of TNFα (P01375 77-233): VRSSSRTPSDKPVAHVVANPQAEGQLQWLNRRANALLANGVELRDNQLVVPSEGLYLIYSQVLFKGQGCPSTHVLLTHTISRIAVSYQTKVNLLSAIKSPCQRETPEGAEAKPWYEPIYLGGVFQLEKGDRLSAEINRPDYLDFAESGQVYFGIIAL

Assay [2] concerns the target T1, folate receptor beta (Homo sapiens (Human), UniProt P14207). The assay is described as follows: Folate receptor binding assay (fluorescence polarization). The conditions noted are these: 2.5 nM folate receptor beta, 2 nM FR-Cy probe, 2 hr incubation; read-out: FOLR2-FP. In short, it runs like this: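 Fluorescence polarization competition with 2 nM folate–Cy5 probe and 2.5 nM receptor in 20 mM Hepes pH 7.5, 250 mM NaCl, Tween-20, 1% DMSO; 3-fold dilutions, 2 h incubation, ex 620/em 688 nm. Duplicates normalized to DMSO (high) and 1 μM folic acid (low); IC50 from 4-parameter fit.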

Assay [3] deals with T1, folate receptor beta. The assay is described as follows: Folate receptor SPR assay (biotinylated folate receptor beta on streptavidin chip). As to conditions: for Rmax: biotinylated folate receptor beta on streptavidin chip; for kd / Kd / kon: multi-cycle kinetics, 25° C., 1:1 model; for Kd: read-out: FOLR2Biotin - SPR Kd; for kon: pH 7.5, read-out: ka. The format is binding. Put shortly:
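Biotinylated receptor captured on a streptavidin SPR chip; multi-cycle kinetics at 25 °C with 8 compound concentrations (2-fold dilutions) in HEPES pH 7.5, 150 mM NaCl, 0.05% Tween 20, 2% DMSO. Association 120 s, dissociation 600 s; binding parameters from 1:1 model fit.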

For assay [4], the target named is TNFα and streptavidin immobilized FOL2R (Homo sapiens (Human), UniProt P01375+P14207). The assay is described as follows: Ternary complex SPR assay. The format is binding. The conditions noted are these: 10 nM compound, max response normalized to expected response; for TC 150 nM- tagless TNF Normalized: 150 nM untagged TNF; for TC 300 nM- tagless TNF Normalized: 300 nM untagged TNF. In short, it runs like this:
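Biotinylated folate receptor beta captured at ~1800 RU on a streptavidin chip; untagged TNF preincubated 6 hr at 25° C with 10 nM compound in HEPES pH 7.5, 150 mM NaCl, 0.05% Tween 20, 2% DMSO, then injected (110 s association, 600 s dissociation). Maximum response normalized to maximum expected response per compound.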

The source of these data is US20250127913A1, “BIFUNCTIONAL FOLATE RECEPTOR BINDING COMPOUNDS” (LYCIA THERAPEUTICS, INC., priority 2021, published 2025).

T1 sequence (P14207 17-255): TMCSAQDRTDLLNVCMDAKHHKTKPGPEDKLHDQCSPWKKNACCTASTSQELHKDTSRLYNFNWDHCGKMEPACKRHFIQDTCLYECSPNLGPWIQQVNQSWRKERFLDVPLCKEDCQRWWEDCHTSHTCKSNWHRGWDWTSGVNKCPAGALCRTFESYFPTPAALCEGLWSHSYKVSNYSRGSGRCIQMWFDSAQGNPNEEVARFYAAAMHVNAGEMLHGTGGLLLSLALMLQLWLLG
Chain of TNFα and streptavidin immobilized FOL2R (P14207 17-230): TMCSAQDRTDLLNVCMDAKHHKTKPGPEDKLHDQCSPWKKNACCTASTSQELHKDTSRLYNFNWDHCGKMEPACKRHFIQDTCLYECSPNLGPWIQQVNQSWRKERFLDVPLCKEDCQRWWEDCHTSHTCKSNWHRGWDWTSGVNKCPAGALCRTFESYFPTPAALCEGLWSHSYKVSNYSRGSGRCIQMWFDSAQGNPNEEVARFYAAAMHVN
Chain of TNFα and streptavidin immobilized FOL2R (P01375 77-233): as the sequence (P01375 77-233) above

For the compound `Cc1nc2cc(F)c(-c3cnc(N4CCN(C(=O)COCCn5cc(CN(CCO)CCOCCOCCOCCNC(=O)CC[C@H](NC(=O)c6ccc(NCc7cnc8nc(N)nc(O)c8n7)cc6)c6nn[nH]n6)nn5)CC4)nc3)nc2c(N[C@H](C)c2cc(C#N)ccc2F)c1Cl` [Compound I-80, 4-(((2-amino-4-hydroxypteridin-6-yl)methyl)amino)-N—((S)-3-((1-(2-(2-(4-(5-(7-chloro-8-(((R)-1-(5-cyano-2-fluorophenyl)ethyl)amino)-3-fluoro-6-methyl-1,5-naphthyridin-2-yl)pyrimidin-2-yl)piperazin-1-yl)-2-oxoethoxy)ethyl)-1H-1,2,3-triazol-4-yl)methyl)-1-hydroxy-16-oxo-19-(2H-tetrazol-5-yl)-6,9,12-trioxa-3,15-diazanonadecan-19-yl)benzamide], in assay [1] (10 nM compound, relative to Example 46 as printed (I-92 = 1.00)), the “New-uptake 10 nm-% Example 46” value was found to be 0.89. Moreover, the “New-uptake 100 nM-% Example 46” value in assay [1] (100 nM compound, relative to Example 46 as printed (I-92 = 1.00)) amounted to 1.02. Besides, the IC50 on TNFα worked out at 36 nM; at folate receptor beta [2], 12 nM.
As for `Cc1nc2cc(F)c(-c3cnc(N4CCN(C(=O)COCCOCCOCCOCCOCCOCCn5cc(CC[C@H](NC(=O)c6ccc(OCc7ccc8nc(N)nc(O)c8c7)cc6)C(=O)O)nn5)CC4)nc3)nc2c(N[C@H](C)c2cc(C#N)ccc2F)c1Cl` [Compound I-87, (S)-2-(4-((2-amino-4-hydroxyquinazolin-6-yl)methoxy)benzamido)-4-(1-(20-(4-(5-(7-chloro-8-(((R)-1-(5-cyano-2-fluorophenyl)ethyl)amino)-3-fluoro-6-methyl-1,5-naphthyridin-2-yl)pyrimidin-2-yl)piperazin-1-yl)-20-oxo-3,6,9,12,15,18-hexaoxaicosyl)-1H-1,2,3-triazol-4-yl)butanoic acid], the “uptake of TNFα compared the no compound control (DMSO)” value in assay [1] (2 h) is “dose-dependent uptake of TNFα”. In assay [1] (Homo sapiens, ΔMFI FOLR2 overexpressing vs WT THP-1 cells, 2 h), this compound displayed an EC50 of 15.3 nM. Moreover, at TNFα, the IC50 was 22 nM. Also, the IC50 at folate receptor beta [2] was 8 nM. On folate receptor beta [3], the Rmax worked out at 18.7 RU, the kd was 0.000692 s⁻¹, the Kd was found to be 0.035 nM and the kon came to 1.97e+07 M⁻¹ s⁻¹. Besides, in assay [4], the “TC 150 nM- tagless TNF Normalized” value was found to be 25.7% and the “TC 300 nM- tagless TNF Normalized” value was determined as 32.8%.
For `Cc1nc2cc(F)c(-c3cnc(N4CCN(C(=O)COCCOCCOCCOCCOCCOCCn5cc(CC[C@H](NC(=O)c6ccc(NCc7cnc8nc(N)nc(O)c8n7)cc6)C(=O)O)nn5)CC4)nc3)nc2c(N[C@H](C)c2cc(C#N)ccc2F)c1Cl` [Compound I-92], in assay [1] (2 h), the “uptake of TNFα compared the no compound control (DMSO)” value is “dose-dependent uptake of TNFα”. Moreover, the IC50 at TNFα was determined as 20 nM. Moreover, the IC50 on folate receptor beta [2] was 7.6 nM. In addition, at folate receptor beta [3], the Rmax amounted to 17.1 RU, the kd is 8.7e-05 s⁻¹, the Kd came to 0.00867 nM and the kon is 1e+07 M⁻¹ s⁻¹. The “TC 60 nM taggless TNF normalized” value in assay [4] (60 nM untagged TNF) worked out at 15.3%. Moreover, in assay [4], the “TC 150 nM- tagless TNF Normalized” value is given as 16.9% and the “TC 300 nM- tagless TNF Normalized” value was 18.7%.
